Measured values reported in PMC5506005, “A novel protein kinase inhibitor IMB-YH-8 with anti-tuberculosis activity” (Scientific Reports, 2017).
Converted amounts (≈) assume the structure as drawn. Like-named read-outs stand apart in the source and are kept apart here.

Tests used:
[1] = system: intracellular M. tuberculosis H37Rv; assay: Intracellular activity assay in infected THP-1 cells (CFU); assay type: cell-based; conditions: 3 days; for Log10CFU: infected THP-1 cells, mean ± SD, untreated 5.03 ± 0.12
PknB [2] = target: T1, PknB (Mycobacterium tuberculosis, UniProt P9WI81); assay: In vitro protein kinase assay (Kinase Glo), auto-phosphorylation of PknB; assay type: biochemical, M. tuberculosis; conditions: non-radioactive Kinase Glo assay, 100 μM ATP
T1 sequence (P9WI81 11-274 limits assumed): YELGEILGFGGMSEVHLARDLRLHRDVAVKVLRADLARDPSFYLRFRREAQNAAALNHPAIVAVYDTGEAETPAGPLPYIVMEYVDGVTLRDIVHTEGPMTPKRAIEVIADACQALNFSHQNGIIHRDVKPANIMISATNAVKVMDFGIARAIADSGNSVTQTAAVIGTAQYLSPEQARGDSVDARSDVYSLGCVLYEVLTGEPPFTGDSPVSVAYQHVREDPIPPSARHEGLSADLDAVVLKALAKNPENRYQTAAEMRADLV

PknA = target: T2, PknA (Mycobacterium tuberculosis, UniProt P9WI83); assay: In vitro protein kinase assay (Kinase Glo), auto-phosphorylation of PknA; assay type: biochemical, M. tuberculosis
T2 sequence (P9WI83 1-431): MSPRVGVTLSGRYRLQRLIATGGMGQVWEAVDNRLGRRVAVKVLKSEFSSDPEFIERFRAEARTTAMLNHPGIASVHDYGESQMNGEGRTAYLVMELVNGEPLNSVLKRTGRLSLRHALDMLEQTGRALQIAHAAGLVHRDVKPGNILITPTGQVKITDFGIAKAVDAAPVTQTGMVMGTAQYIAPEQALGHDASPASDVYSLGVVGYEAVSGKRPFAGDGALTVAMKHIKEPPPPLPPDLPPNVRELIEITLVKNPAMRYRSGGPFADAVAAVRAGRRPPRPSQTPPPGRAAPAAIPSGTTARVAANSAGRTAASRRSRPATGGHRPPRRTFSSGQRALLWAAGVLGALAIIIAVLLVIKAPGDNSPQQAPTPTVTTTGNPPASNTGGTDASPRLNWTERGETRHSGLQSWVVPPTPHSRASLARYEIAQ

PknG = PknG (Mycobacterium tuberculosis, UniProt P9WI73); assay: In vitro protein kinase assay (Kinase Glo), auto-phosphorylation of PknG; assay type: biochemical, M. tuberculosis
PknG, sequence (P9WI73 whole entry): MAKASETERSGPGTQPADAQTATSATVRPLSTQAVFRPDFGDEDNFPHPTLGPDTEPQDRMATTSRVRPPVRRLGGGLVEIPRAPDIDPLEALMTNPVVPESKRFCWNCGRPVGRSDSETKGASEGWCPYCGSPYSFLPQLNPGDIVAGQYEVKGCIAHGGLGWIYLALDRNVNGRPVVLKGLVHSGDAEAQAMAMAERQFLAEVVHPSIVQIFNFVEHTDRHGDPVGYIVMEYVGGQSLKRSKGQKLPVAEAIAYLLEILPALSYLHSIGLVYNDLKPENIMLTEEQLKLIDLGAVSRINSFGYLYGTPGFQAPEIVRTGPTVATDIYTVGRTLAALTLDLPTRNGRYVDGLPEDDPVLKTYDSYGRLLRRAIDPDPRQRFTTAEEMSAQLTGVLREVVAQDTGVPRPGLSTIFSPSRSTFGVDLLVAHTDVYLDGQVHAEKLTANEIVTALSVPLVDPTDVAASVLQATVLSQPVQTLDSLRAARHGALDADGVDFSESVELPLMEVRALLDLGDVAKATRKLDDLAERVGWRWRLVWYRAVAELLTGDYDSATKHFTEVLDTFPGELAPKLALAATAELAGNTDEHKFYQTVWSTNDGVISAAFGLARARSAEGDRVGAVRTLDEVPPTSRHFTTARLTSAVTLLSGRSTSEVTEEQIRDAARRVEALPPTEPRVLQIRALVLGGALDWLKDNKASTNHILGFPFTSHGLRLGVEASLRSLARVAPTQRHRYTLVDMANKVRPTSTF

PknF = PknF (Mycobacterium tuberculosis, UniProt P9WI75); assay: In vitro protein kinase assay (Kinase Glo), auto-phosphorylation of PknF; assay type: biochemical, M. tuberculosis
PknF, sequence (P9WI75 whole entry): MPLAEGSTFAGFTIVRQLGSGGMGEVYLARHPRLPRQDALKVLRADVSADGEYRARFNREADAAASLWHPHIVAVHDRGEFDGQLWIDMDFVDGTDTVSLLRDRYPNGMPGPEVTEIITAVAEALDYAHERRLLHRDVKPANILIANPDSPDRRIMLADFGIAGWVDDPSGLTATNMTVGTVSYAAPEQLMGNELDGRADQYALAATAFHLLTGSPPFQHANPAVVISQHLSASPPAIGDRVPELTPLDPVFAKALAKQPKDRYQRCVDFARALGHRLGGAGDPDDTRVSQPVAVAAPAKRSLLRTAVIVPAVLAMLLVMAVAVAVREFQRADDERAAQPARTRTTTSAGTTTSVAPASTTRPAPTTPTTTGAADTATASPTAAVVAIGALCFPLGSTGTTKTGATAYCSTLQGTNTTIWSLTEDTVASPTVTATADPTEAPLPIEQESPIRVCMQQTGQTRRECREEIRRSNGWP

PknH = PknH (Mycobacterium tuberculosis, UniProt P9WI71); assay: In vitro protein kinase assay (Kinase Glo), auto-phosphorylation of PknH; assay type: biochemical
PknH, sequence (P9WI71 whole entry): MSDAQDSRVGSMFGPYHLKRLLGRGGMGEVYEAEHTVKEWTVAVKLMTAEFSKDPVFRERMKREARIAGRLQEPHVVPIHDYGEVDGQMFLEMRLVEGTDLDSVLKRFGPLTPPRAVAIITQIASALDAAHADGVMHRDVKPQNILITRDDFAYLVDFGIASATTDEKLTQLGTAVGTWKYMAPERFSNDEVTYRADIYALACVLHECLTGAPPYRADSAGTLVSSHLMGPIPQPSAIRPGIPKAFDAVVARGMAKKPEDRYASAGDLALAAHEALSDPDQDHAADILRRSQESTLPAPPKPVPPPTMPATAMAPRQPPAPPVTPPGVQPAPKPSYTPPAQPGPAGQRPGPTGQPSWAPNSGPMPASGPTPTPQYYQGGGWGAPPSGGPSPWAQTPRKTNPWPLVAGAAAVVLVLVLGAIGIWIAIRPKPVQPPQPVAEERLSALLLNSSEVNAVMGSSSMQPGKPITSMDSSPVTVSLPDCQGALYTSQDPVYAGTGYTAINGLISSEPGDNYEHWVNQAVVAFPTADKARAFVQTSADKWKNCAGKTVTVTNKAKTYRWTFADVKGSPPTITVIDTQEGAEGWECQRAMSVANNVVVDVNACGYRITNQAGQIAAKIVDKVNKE

human kinase Akt1 = human kinase Akt1 (Homo sapiens, UniProt P31749); assay: In vitro protein kinase assay (Kinase Glo), auto-phosphorylation of Akt1; assay type: biochemical
human kinase Akt1, sequence (P31749 whole entry): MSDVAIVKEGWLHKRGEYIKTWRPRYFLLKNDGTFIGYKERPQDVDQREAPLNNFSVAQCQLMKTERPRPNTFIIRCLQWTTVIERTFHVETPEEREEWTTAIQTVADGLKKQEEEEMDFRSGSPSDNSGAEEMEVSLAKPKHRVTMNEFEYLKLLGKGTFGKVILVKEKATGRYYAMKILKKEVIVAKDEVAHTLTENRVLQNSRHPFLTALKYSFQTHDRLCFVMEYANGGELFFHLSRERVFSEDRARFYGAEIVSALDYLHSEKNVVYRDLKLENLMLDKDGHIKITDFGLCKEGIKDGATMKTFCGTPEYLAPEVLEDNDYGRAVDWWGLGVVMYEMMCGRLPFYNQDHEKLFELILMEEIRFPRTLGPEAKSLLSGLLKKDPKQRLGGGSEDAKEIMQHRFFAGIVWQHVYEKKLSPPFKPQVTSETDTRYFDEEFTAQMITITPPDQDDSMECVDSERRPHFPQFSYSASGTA

PknB [3] = target: T1, PknB; assay: Phosphorylation of GarA by PknB, Phos-tag SDS-PAGE; assay type: biochemical, M. tuberculosis; conditions: non-phosphorylated GarA increased in a dose-dependent manner
Experimental: In vitro phosphorylation of GarA (5 μM) by PknB (3 μM) was carried out in 50 μl reaction mixture (25 mM Tris-HCl (pH = 7.4), 5 mM MgCl2, 2 mM MnCl2). The reaction was initiated with the additional of 100 μM ATP and incubated at 37 °C for 3 hours. The reaction was terminated with the addition of SDS-PAGE sample buffer and heating the mixture at 100 °C for 5 min. The reaction mixtures were analyzed by 12% SDS-PAGE with or without Phos-tag SDS-PAGE to differentiate the phosphorylated and non-phosphorylated GarA. Phos-tag SDS-PAGE was performed with gel containing 20 μM Phos-tag acrylamide (Wako Pure Chemical Industries, Japan) and 100 µM MnCl2 according to the manufacturer’s instructions. Electrophoresis was performed at 4 °C in Tris-glycine SDS-PAGE running buffer at 30 mA for 2 h. Images were adjusted for contrast and brightness using Bio-Rad image lab software version 2.01.

PknB [4] = target: T1, PknB; assay: Surface plasmon resonance (BIAcore) binding to PknB; set-up: species or system M. tuberculosis; conditions: single cycle kinetics, 1:1 binding model, 25 °C, read-out: Kd for binding to PknB (SPR)
PknB [5] = target: PknB (Mycobacterium tuberculosis, UniProt P9WI81); assay: biochemical; assay type: binding, M. tuberculosis
Target sequence in this assay (P9WI81 1-279 limits assumed): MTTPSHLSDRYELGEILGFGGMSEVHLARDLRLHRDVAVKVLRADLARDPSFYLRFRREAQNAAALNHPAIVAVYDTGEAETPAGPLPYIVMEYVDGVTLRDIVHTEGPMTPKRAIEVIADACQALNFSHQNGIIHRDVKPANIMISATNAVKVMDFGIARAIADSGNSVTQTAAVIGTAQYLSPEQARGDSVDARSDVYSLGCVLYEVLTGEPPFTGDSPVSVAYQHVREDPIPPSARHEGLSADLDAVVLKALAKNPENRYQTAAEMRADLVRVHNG

M. tuberculosis H37Rv [6] = assay: MIC by microplate Alamar blue assay (MABA), H37Rv; assay type: cell-based; conditions: Mycobacterium tuberculosis
[7] = system: clinical isolates of M. tuberculosis; assay: microbe, parasite or virus in culture; assay type: cell-based; conditions: Mycobacterium tuberculosis, clinical isolate 31251, sensitive
M. tuberculosis H37Rv [8] = assay: Scanning electron microscopy of cell morphology; assay type: cell-based; conditions: 1 μg/ml for 5 days, SEM
Experimental: To determine whether IMB-YH-8 affects the morphology of M. tuberculosis H37Rv, scanning electron microscopy (SEM) was performed. H37Rv was grown to early log phase (optical density at 600 nm, ~0.2). Then 1 μg/ml IMB-YH-8 was added to treat cells, followed by incubation at 37 °C for 5 days. Cells were harvested by low-speed centrifugation and washed in 0.1 M phosphate buffer (pH 7.4). The cells were then fixed in 0.1 M phosphate buffer (pH 7.4) containing 2.5% glutaraldehyde and 0.5% paraformaldehyde. The samples were submitted to the Instrument Center of Institute of Microbiology, Chinese Academy of Sciences for further analysis. Observations were carried out using a SEM (SU8010; Hitachi, Tokyo, Japan). Untreated H37Rv were also processed as control.

[9] = system: M. tuberculosis gene transcripts (PknB/SigH regulatory pathways); assay: Gene expression by microarray; assay type: cell-based; conditions: 4 h; for fold induction at 2.5 µg/mL: Mycobacterium tuberculosis; for Regulation: 2.5 μg/ml
Experimental: The drug-treated (2.5 μg/ml IMB-YH-8), together with control (DMSO) mycobacterial cultures, were incubated at 37 °C for 4 h. Total RNAs were isolated by RiboPure^TM-Bacteria Kit (Life Technology, AM1925) according to the manufacturer’s instructions. The quantity and quality of each RNA sample was determined using NanoDrop ND-2000 spectrophotometer (Thermo Scientific, Wilmington, DE) and Agilent 2100 Bioanalyzer (Agilent Technologies, Santa Clara, CA).
The qualified RNA samples were labeled and hybridized on Agilent 4 × 44 K Custom design Gene Expression Microarray according to manufacturer protocol (Agilent, Santa Clara, CA). In brief, 100 ng of each RNA sample was amplified to cRNA and labeled with Cy-3 using Agilent Low Input Quick Amp Labeling Kit. The labeled samples were hybridized for 16 hours at 10 rotations per minute. After hybridization, the arrays were washed and scanned by Agilent scanner and then the image was analyzed by Agilent Feature Extraction v11.5. Data obtained from Feature Extraction were imported to GeneSpring GX version 13.1 (Agilent Technologies, Santa Clara, CA) for 75th percentile shift and baseline to median of all samples normalization.

[10] = system: M. tuberculosis H37Rv gene transcripts (PknB/SigH regulatory pathways); assay type: cell-based; conditions: 2.5 μg/ml, 4 h; for Real-time reverse transcription PCR Normalized ΔCt (mean ± SD): normalized to sigA mRNA
THP-1 cells = conditions: calculated as the CC50/MIC (THP-1 / H37Rv)
Mycobacterium marinum = system: Mycobacterium marinum; set-up: method as in earlier work; conditions: previous high throughput screening study; cited from earlier work
Mycobacterium smegmatis = system: Mycobacterium smegmatis; set-up: method as in earlier work; conditions: previous high throughput screening study; cited from earlier work
in vitro = conditions: human
[11] = cited from earlier work

Compound: NNC(=O)c1ccncc1 [INH, isoniazid, reference compound]
- Log10CFU ([1]; 0.5 μg/ml): 3.24 ± 0.05
- Log10CFU ([1]; 1 μg/ml): 3.14 ± 0.06
- Log10CFU ([1]; 2 μg/ml): 2.57 ± 0.14

Compound: COC(=O)/C=C/C(=O)c1ccc(OC)cc1 [IMB-YH-8]
- IC50 (PknB [2]): 20.2 µM
- IC50 (PknA): 44.3 µM
- IC50 (PknG): 349 µM
- IC50 (PknF): 503 µM
- IC50 (PknH): > 640 µM
- IC50 (human kinase Akt1): > 640 µM
- PknB-catalyzed phosphorylation of GarA (PknB [3]): inhibited
- Kd (PknB [4]): 25.3 µM
- Kd (PknB [5]): 13.5 µM
- ΔG of binding to PknB (PknB [5]; ITC, 25 °C): -6.64 kcal/mol
- ΔH of binding to PknB (PknB [5]; ITC, 25 °C): -5.7 kcal/mol
- −TΔS of binding to PknB (PknB [5]; ITC, 25 °C): -0.94 kcal/mol
- MIC (M. tuberculosis H37Rv [6]): 0.25 µg/mL
- MIC (M. tuberculosis H37Rv [6]; converted from 0.25 μg/ml): 1.14 µM
- MIC [7]: 0.25 µg/mL (≈ 1.14 µM)
- reduction in CFU compared to untreated control ([1]; 0.5 µg/ml): 0.18 log10
- Log10CFU ([1]; 0.5 μg/ml): 4.85 ± 0.04
- reduction in CFU compared to untreated control ([1]; 1 µg/ml): 0.62 log10
- Log10CFU ([1]; 1 μg/ml): 4.41 ± 0.12
- reduction in CFU compared to untreated control ([1]; 2 µg/ml): 1.11 log10
- Log10CFU ([1]; 2 μg/ml): 3.92 ± 0.11
- proportion of ruptured cells (M. tuberculosis H37Rv [8]): 61.5%
- fold induction at 2.5 µg/mL ([9]; read-out: Fold induction in microarray (mean ± SD), gene Rv2466c, 2.5 μg/ml): 6.86 ± 1.93
- fold induction at 2.5 µg/mL ([9]; read-out: Fold induction in microarray (mean ± SD), gene rshA (Rv3221A), 2.5 μg/ml): 6.07 ± 0.33
- fold induction at 2.5 µg/mL ([9]; read-out: Fold induction in microarray (mean ± SD), gene sigH (Rv3223c), 2.5 μg/ml): 2.92 ± 0.09
- fold induction at 2.5 µg/mL ([9]; read-out: Fold induction in microarray (mean ± SD), gene trxB2 (Rv3913), 2.5 μg/ml): 6.9 ± 0.75
- fold induction at 2.5 µg/mL ([9]; read-out: Fold induction in microarray (mean ± SD), gene trxC (Rv3914), 2.5 μg/ml): 8.03 ± 0.33
- Regulation ([9]; gene Rv2466c): Up
- Regulation ([9]; gene rshA (Rv3221A)): Up
- Regulation ([9]; gene sigH (Rv3223c)): Up
- Regulation ([9]; gene trxB2 (Rv3913)): Up
- Regulation ([9]; gene trxC (Rv3914)): Up
- Real-time reverse transcription PCR Normalized ΔCt (mean ± SD) ([10]; gene Rv2466c): 6.325 ± 2.51
- Real-time reverse transcription PCR Mean fold change (2^ΔΔCt Value) ([10]; gene rshA (Rv3221A)): 264.11
- Real-time reverse transcription PCR Normalized ΔCt (mean ± SD) ([10]; gene rshA (Rv3221A)): 8.045 ± 0.59
- Real-time reverse transcription PCR Mean fold change (2^ΔΔCt Value) ([10]; gene sigH (Rv3223c)): 5.88
- Real-time reverse transcription PCR Normalized ΔCt (mean ± SD) ([10]; gene sigH (Rv3223c)): 2.555 ± 0.11
- Real-time reverse transcription PCR Mean fold change (2^ΔΔCt Value) ([10]; gene trxB2 (Rv3913)): 7.67
- Real-time reverse transcription PCR Normalized ΔCt (mean ± SD) ([10]; gene trxB2 (Rv3913)): 2.940 ± 0.07
- Real-time reverse transcription PCR Mean fold change (2^ΔΔCt Value) ([10]; gene trxC (Rv3914)): 5.48
- Real-time reverse transcription PCR Normalized ΔCt (mean ± SD) ([10]; gene trxC (Rv3914)): 2.455 ± 0.06
- SI, selectivity index (THP-1 cells): 30.4
- inhibition of Mycobacterium marinum (Mycobacterium marinum): inhibited
- inhibition of Mycobacterium smegmatis (Mycobacterium smegmatis): inhibited
- CC50 at 48 h (in vitro): 7.61 µg/mL (≈ 34.6 µM)
- time until serum concentrations fall below the therapeutic range ([11]; oral delivery of 200 mg/kg): less than 1 hour
- serum Cmax ([11]; rat, in vivo, po, 200 mg/kg): sub-microgram/ml
